{"source": "paper PMC10353446", "about": "“Pharmacokinetics of SPR206 in Plasma, Pulmonary Epithelial Lining Fluid, and Alveolar Macrophages following Intravenous Administration to Healthy Adult Subjects” (Antimicrobial Agents and Chemotherapy, 2023)", "origin": "cited, not measured here", "key": {"[1]": {"settings": "in vivo, cited from earlier work"}, "[2]": {"settings": "human, in vivo, iv; cited from earlier work"}}, "data": [{"substance": "colistin", "values": [{"measurement": "Lung concentrations", "setting": "[1]; iv", "result": "undetectable"}, {"measurement": "Lung concentrations relative to MIC50 for P. aeruginosa", "setting": "[1]", "result": "below the MIC50 for P. aeruginosa"}, {"measurement": "Levels in BAL fluid", "setting": "[2]", "result": "undetectable levels"}]}]}
